Biological target: T1, human recombinant mGluR5 (Homo sapiens, UniProt P41594)
T1 construct: expressed in transfected cells; host or cells: HEK 293 cell line, cultured with tetracycline, hygromycin and geneticin; tetracycline is withdrawn 3-7 days before the assay
Test: positive modulation of mGluR5, calcium based FLIPR assay
Type: cell-based
Conditions: EC50 of the modulation; HEK 293 cell line expressing human recombinant mGluR5; peak height of Ca fluorescence signal after glutamate at approx. 5% basal stimulation; read-out: EC50
Experimental: The positive modulation of mGluR5 is measured in a HEK 293 cell line expressing human recombinant mGluR5 and is detected with calcium based FLIPR assay. The cells are cultured with DMEM supplemented with 10% FCS, 2 μg/mL tetracycline, 100 μg/mL hygromycin and 500 μg/mL gneticin. The cell culture media is exchanged for tetracycline-free cell culture media 3-7 days before the assay. One day before the assay the cell culture medium is exchanged to DMEM without glutamine and phenol red and supplemented with 10% FCS, 100 μg/mL hygromycin and 500 μg/mL geneticin. On the assay day, the medium of the subconfluent cultures is removed and the cells are detached by addition of 2.5 ml EDTA (0.02%) per 175 cm2 culture flask for 1 minute. The cells are resuspend in Ringer solution (140 mM NaCl, 5 mM KCl, 2.5 mM CaCl2, 1.5 mM MgCl2, 5 mM Glucose, 10 mM Hepes; adjusted to pH 7.4 with NaOH), pooled and Ringer solution added to adjust the volume to 50 mL. The cell suspension is centrifuged for 5 min at 1500 U/min (425 g). The supernatant is removed and the cells washed a second time with 50 ml fresh Ringer solution and centrifuged again as before. The supernatant is again removed and the pellet resuspended in Ringer solution to 1,000,000 cells/ml (1×10^6 cells/mL). The cells are plated onto BD BioCoat Poly-D-Lysine 384 well plates (20.000 cells/well; 20 μl/well). The lid covered plates are then incubated until use at 37° C./10% CO2. For dye loading, 20 μl of Calcium-4 assay kit solution (prepared according to the manufacturer's description in Ringer solution) are added to the cells and the plates are incubated for 80 min 37° C. and then 10 min at room temperature. • Controls, Compound dilution and assay execution: • Each assay plate contained wells with “high” and “low” controls:
Low controls 1% DMSO/ringer solution+basal glutamate activation (defined as 100% CTL).
High controls 10 μM CDPPB+basal glutamate activation (defined as 200% CTL).
Test compounds are dissolved and diluted in DMSO to 100-fold the desired concentrations. In a second step, the compounds are diluted in Ringer solution such that the compounds are 4-fold more concentrated than the desired final assay concentration. The final DMSO concentration was 1%.
20 μl of each compound solution are then transferred to the assay plate and the Ca2+ kinetic is measured to determine any intrinsic compound activity. After 5 min incubation in the FLIPR device, the second stimulation with 20 μl of glutamate in Ringer solution (glutamate concentration adjusted to approximately 5% basal stimulation of the maximal possible glutamate effect) is added and the kinetic Ca2+ response of the wells was measured for the modulation effect.
The peak height of the Ca release related fluorescence signal (9-66) is used for the EC50. The EC50 of the modulation is calculated over a nonlinear regression with GraphPad Prism (Table 1).

T1 sequence (P41594 21-1212): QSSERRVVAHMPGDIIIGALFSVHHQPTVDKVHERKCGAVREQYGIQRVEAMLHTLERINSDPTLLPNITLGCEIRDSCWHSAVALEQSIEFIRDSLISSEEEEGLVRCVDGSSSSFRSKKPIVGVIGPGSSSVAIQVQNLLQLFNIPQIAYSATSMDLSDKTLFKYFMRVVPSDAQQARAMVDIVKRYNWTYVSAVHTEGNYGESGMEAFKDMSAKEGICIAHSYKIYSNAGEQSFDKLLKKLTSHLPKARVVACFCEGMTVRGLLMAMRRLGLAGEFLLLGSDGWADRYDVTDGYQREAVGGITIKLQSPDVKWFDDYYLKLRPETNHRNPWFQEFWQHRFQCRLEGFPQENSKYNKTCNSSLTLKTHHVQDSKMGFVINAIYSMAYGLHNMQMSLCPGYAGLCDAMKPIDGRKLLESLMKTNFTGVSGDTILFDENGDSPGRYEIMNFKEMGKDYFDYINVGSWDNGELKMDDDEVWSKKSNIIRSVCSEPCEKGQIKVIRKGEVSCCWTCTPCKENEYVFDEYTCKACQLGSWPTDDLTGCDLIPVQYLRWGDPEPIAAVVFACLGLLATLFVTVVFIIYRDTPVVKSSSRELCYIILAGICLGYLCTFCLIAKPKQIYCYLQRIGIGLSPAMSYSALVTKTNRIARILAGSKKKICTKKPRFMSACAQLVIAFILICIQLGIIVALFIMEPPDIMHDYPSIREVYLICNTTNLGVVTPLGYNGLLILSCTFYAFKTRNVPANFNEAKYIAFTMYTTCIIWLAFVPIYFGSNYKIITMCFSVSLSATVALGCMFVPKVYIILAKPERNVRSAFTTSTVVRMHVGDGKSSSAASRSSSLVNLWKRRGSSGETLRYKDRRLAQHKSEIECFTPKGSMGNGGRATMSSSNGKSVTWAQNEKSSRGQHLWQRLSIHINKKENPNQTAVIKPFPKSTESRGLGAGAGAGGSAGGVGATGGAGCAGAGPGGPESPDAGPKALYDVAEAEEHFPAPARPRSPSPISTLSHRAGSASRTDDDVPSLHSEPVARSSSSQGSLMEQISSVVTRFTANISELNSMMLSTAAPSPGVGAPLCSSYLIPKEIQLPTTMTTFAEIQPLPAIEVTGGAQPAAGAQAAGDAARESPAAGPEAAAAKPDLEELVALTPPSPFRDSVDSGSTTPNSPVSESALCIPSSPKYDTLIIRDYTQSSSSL

SMILES	EC50
Cc1nc2c(s1)CCN(C(=O)Cn1nc(-c3ccc(F)c(C)c3)nc1C(C)C)CC2 [Example 7.03.074.]	321 nM
O=C(Cn1nc(-c2ccc(F)cc2)nc1-c1ccc(F)cc1)N1Cc2ccncc2C1 [Example 7.02.40.]	1760 nM
COc1cc2c(cc1OC)CN(C(=O)Cn1nc(-c3ccc(F)cc3)nc1-c1ccc(F)cc1)CC2 [Example 7.03.006.]	1680 nM
Cc1cc(-c2nc(-c3ccccc3)n(CC(=O)N3CCc4ncnc(-c5ccccc5)c4CC3)n2)ccc1F [Example 7.02.80.]	323 nM
Nc1nc2c(o1)CCN(C(=O)Cn1nc(-c3ccc(F)cc3)nc1-c1ccc(F)cc1)CC2 [Example 7.03.019.]	439 nM
COc1ccc(-c2nc(-c3ccc(F)cc3)nn2CC(=O)N2CCc3nc(N)sc3CC2)cc1 [Example 7.03.057.]	187 nM
Cc1nc2c(o1)CN(C(=O)Cn1nc(-c3ccc(F)c(C)c3)nc1-c1ccccc1)C2 [Example 7.03.123]	31 nM
COc1ccc(-c2nc(-c3ccc(F)cc3)n(CC(=O)N3CCc4nc(C)sc4CC3)n2)cc1 [Example 7.03.056.]	63 nM
O=C(Cn1nc(-c2ccc(F)cc2)nc1-c1ccc(F)cc1)N1CCc2nc(C3CCOCC3)sc2CC1 [Example 7.03.031.]	1780 nM
Cc1nc2c(o1)CCN(C(=O)Cn1nc(-c3ccc(F)c(C)c3)nc1-c1ccccc1)CC2 [Example 7.02.86.]	28 nM
Cc1nc2c(s1)CCN(C(=O)Cn1nc(-c3ccc(F)c(C)c3)nc1C1CCCCC1C)CC2 (stereo not drawn) [Example 7.03.093.]	433 nM
COc1ccnc(C2=CCN(C(=O)Cn3nc(-c4ccc(F)c(C)c4)nc3C(C)C)CC2)c1 [Example 7.03.079.]	545 nM
O=C(Cn1nc(-c2ccc(F)cc2)nc1-c1ccc(F)cc1)N1Cc2nc(-c3ccccc3)sc2C1 [Example 7.02.63.]	1010 nM
COc1ccc(-c2nc(-c3ccccc3)n(CC(=O)N3CCN(c4ccccn4)C(=O)C3)n2)cc1 [Example 7.03.053.]	242 nM
COc1ccc2c(c1)CCN(C(=O)Cn1nc(-c3ccc(F)cc3)nc1-c1ccc(F)cc1)C2C (stereo not drawn) [Example 7.02.36.]	1090 nM
O=C(Cn1nc(-c2ccc(F)cc2)nc1-c1ccc(F)cc1)N1CCC(c2ncco2)CC1 [Example 7.03.038.]	75 nM
CCCCc1nc(-c2ccc(F)c(C)c2)nn1CC(=O)N1CCc2nc(C)sc2CC1 [Example 7.03.103.]	113 nM
Nc1ccc2c(c1)CCN(C(=O)Cn1nc(-c3ccc(F)cc3)nc1-c1ccc(F)cc1)CC2 [Example 7.02.26.]	518 nM
COc1ncc2c(n1)CCN(C(=O)Cn1nc(-c3ccc(F)cc3)nc1-c1ccc(F)cc1)C2 [Example 7.02.60.]	294 nM
COc1ccc2c(c1)CN(C(=O)Cn1nc(-c3ccc(F)cc3)nc1-c1ccc(F)cc1)CC2 [Example 7.02.41.]	1270 nM
CCCCCc1nc(-c2ccc(F)c(C)c2)nn1CC(=O)N1CCc2nc(N)sc2CC1 [Example 7.03.111.]	90 nM
CCC(C)c1nc(-c2ccc(F)c(C)c2)nn1CC(=O)N1CCc2nc(C)sc2CC1 (stereo not drawn) [Example 7.03.086.]	379 nM
COc1cccc(N2CCN(C(=O)Cn3nc(-c4ccc(F)cc4)nc3-c3ccc(F)cc3)CC2=O)n1 [Example 7.03.041.]	161 nM
COc1ccc(-c2nc(-c3ccccc3)n(CC(=O)N3CCc4nc(N)sc4CC3)n2)cc1 [Example 7.03.051.]	282 nM
Cc1nc2c(s1)CCN(C(=O)Cn1nc(-c3ccc(F)c(C)c3)nc1CCC(C)C)CC2 [Example 7.03.114.]	102 nM
Cc1cc(-c2nc(C3CCCCC3C)n(CC(=O)N3CCc4nc(N)sc4CC3)n2)ccc1F (stereo not drawn) [Example 7.03.094.]	1090 nM
Cc1cc(-c2nc(C(C)C)n(CC(=O)N3CC=C(c4ccccn4)CC3)n2)ccc1F [Example 7.03.075.]	1090 nM

SMILES	EC50
O=C(Cn1nc(-c2ccc(F)cc2)nc1-c1ccc(F)cc1)N1CCN(c2ccccc2F)C(=O)C1 [Example 7.02.14.]	537 nM
O=C(Cn1nc(-c2ccc(F)cc2)nc1-c1ccc(F)cc1)N1CCC(Oc2ccc3c(c2)OCO3)CC1 [Example 7.02.30.]	932 nM
Cc1cc(-c2nc(C(C)C)n(CC(=O)N3CCc4nc(N)sc4CC3)n2)ccc1F [Example 7.03.073.]	1170 nM
COc1cc(-c2nc(-c3ccc(F)cc3)n(CC(=O)N3CCc4nc(N)sc4CC3)n2)ccc1F [Example 7.03.088.]	60 nM
O=C(Cn1nc(-c2ccc(F)cc2)nc1-c1ccc(F)cc1)N1CCC(c2ccccn2)C1 (stereo not drawn) [Example 7.02.64.]	976 nM
COc1ccc(-c2nc(-c3ccccc3)n(CC(=O)N3CCc4nc(C)oc4C3)n2)cc1 [Example 7.03.052.]	323 nM
CC(C)c1ncc2c(n1)CCN(C(=O)Cn1nc(-c3ccc(F)cc3)nc1-c1ccc(F)cc1)C2 [Example 7.02.32.]	468 nM
O=C(Cn1nc(-c2ccc(F)cc2)nc1-c1ccc(F)cc1)N1Cc2cccnc2C1 [Example 7.03.020.]	626 nM
O=C(Cn1nc(-c2ccc(F)cc2)nc1-c1ccc(F)cc1)N1CCC(c2nccs2)CC1 [Example 7.02.18.]	516 nM
Cc1cc(-c2nc(CC(C)C)n(CC(=O)N3CCc4nc(N)sc4CC3)n2)ccc1F [Example 7.03.099.]	269 nM
O=C(Cn1nc(-c2ccc(F)cc2)nc1-c1ccc(F)cc1)N1CCc2ncsc2CC1 [Example 7.06.01., 2-(3,5-bis-(4-Fluoro-phenyl)-(1,2,4)triazol-1-yl]-1-(4,5,7,8-tetrahydro-thiazolo[4,5-d]azepin-6-yl)-ethanone]	1130 nM
Cc1cc(-c2nc(-c3ccc(F)c(C)c3)n(CC(=O)N3CCc4nc(N)sc4CC3)n2)ccc1F [Example 7.03.083.]	64 nM
O=C(Cn1nc(-c2ccc(F)cc2)nc1-c1ccc(F)cc1)N1CC=C(c2ccccc2)CC1 [Example 7.02.66.]	559 nM
O=C(Cn1nc(-c2ccc(F)cc2)nc1-c1ccc(F)cc1)N1CCN(c2nccs2)C(=O)C1 [Example 7.01.02.]	118 nM
Cc1cc(-c2nc(-c3ccccc3)n(CC(=O)N3CCc4ccc(N)cc4CC3)n2)ccc1F [Example 7.02.88.]	180 nM
O=C(Cn1nc(-c2ccc(F)cc2)nc1-c1ccc(F)cc1)N1CC=C(c2ncccn2)CC1 [Example 7.03.022.]	56 nM
Nc1nc2c(s1)CCN(C(=O)Cn1nc(-c3ccc(F)cc3)nc1-c1ccc(F)cc1)CC2 [Example 7.03.001., 1-(2-Amino-4,5,7,8-tetrahydro-thiazolo[4,5-d]azepin-6-yl)-2-(3,5-bis-(4-fluoro-phenyl)-(1,2,4)triazol-1-yl)-ethanone]	164 nM
O=C(Cn1nc(-c2ccc(F)cc2)nc1-c1ccc(F)cc1)N1CCN(c2ccccn2)C(=O)C1 [Example 7.01.01., 4-(2-(3,5-bis-(4-Fluoro-phenyl)-(1,2,4)triazol-1-yl)-acetyl)-1-pyridin-2-yl-piperazin-2-one]	212 nM
Cc1cc(-c2nc(-c3ccccc3)n(CC(=O)N3CCc4ncsc4CC3)n2)ccc1F [Example 7.02.87.]	58.8 nM
CN1C(=O)N(C2CCN(C(=O)Cn3nc(-c4ccc(F)cc4)nc3-c3ccc(F)cc3)CC2)Cc2ccccc21 [Example 7.02.25.]	1860 nM
O=C(Cn1nc(-c2ccc(F)cc2)nc1-c1ccc(F)cc1)N1CCC(n2nc(-c3cccs3)ccc2=O)CC1 [Example 7.02.31.]	1780 nM
CC(C)c1nnc(N2CCN(C(=O)Cn3nc(-c4ccc(F)cc4)nc3-c3ccc(F)cc3)CC2)o1 [Example 7.03.043.]	139 nM
O=C(Cn1nc(-c2ccc(F)cc2)nc1-c1ccc(F)cc1)N1CCc2cccnc2CC1 [Example 7.02.67.]	133 nM
CCCc1nc(-c2ccc(F)c(C)c2)nn1CC(=O)N1CCc2nc(C)sc2CC1 [Example 7.03.070.]	457 nM
CC1CN(C(=O)Cn2nc(-c3ccc(F)cc3)nc2-c2ccc(F)cc2)CCN1c1ncccn1 (stereo not drawn) [Example 7.03.118.]	211 nM
N#Cc1ccc2c(c1)CCN(C(=O)Cn1nc(-c3ccc(F)cc3)nc1-c1ccc(F)cc1)C2 [Example 7.02.48.]	972 nM
CCCCCc1nc(-c2ccc(F)c(C)c2)nn1CC(=O)N1CCc2nc(C)sc2CC1 [Example 7.03.110.]	55 nM
